Measured values reported in patent US8741932B2, “Imidazopyridine derivatives” (Piramal Enterprises Limited, priority 2009, dated 2014).

What was measured:
PI3Kα kinase = target: T1, PI3Kα kinase (Homo sapiens, UniProt P42336); test: Kinase assay (PI3Kα); assay type: biochemical; details: read-out: IC50 (μM) for PI3K inhibition
T1 construct: purchased Millipore, USA
Summary of the method: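 Recombinant PI3Kα (20 ng) phosphorylated 12.5 μg phosphatidylinositol with 10 μM ATP and 1 μCi ^32γ P […] in 10 mM Hepes pH 7.5, 50 mM MgCl2 for 20 min at 30° C. Lipids were extracted with MeOH/CHCl3, resolved by TLC, and labelled PI quantified by autoradiography densitometry; PI-103 served as standard.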

SKOV3 = test: Cytotoxicity assay (propidium iodide), SKOV3; assay type: cell-based; details: Homo sapiens, SK-OV-3; SKOV3 (C3b, ovarian); 48 hours
Description: Cells from cell lines as mentioned in the table given below were seeded at a density of 3000 cells/well in a white opaque 96-well plate. Following incubation at 37° C./5% CO2 for a period of 18-24 hours, the cells were treated with various concentrations (stock solution was prepared in DMSO and subsequent dilutions were made in media as per ATCC guidelines) of the representative compounds of present invention (refer table 3) for a period of 48 hours. At the end of treatment, the spent culture medium was discarded, the cells were washed with 1×PBS and 200 μl of 7 μg/ml propidium iodide was added to each well. The plates were frozen at −70° C. for at least 24 hours. For analysis, the plates were brought to RT, allowed to thaw and were read in PolarStar fluorimeter with the fluorescence setting. The percentage of viable cells in the non treated set of wells was considered to be 100 and the percentage viability following treatment was calculated accordingly. IC50 values were calculated from graphs plotted using these percentages.

STAT3 = STAT3 bioassay (Hela Stat3-luc, luciferase); assay type: cell-based; details: Homo sapiens, Oncostatin M induction
Summary of the method: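 Hela Stat3-luc cells (20,000/well, 24 h) pretreated with compound 1 h, then induced with 100 ng/ml final Oncostatin M for 7-8 h at 37 °C. Luciferase luminescence after lysis; percent inhibition versus induction control, IC50 from these percentages.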

IL-6 = test: Human monocyte assay, LPS-stimulated IL-6; assay type: cell-based; details: Monocyte; human monocytes, 1 μg/ml LPS, 5 hours
Summary of the method: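 Adherent human PBMC-derived monocytes (2×10^4/well) were cultured 48 h, preincubated 30 min with compound or 0.5% DMSO, then stimulated with 1 μg/ml E. coli LPS for 5 h at 37° C. TNF-α and IL-6 in supernatants were measured by ELISA.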

T1 sequence (P42336 whole entry): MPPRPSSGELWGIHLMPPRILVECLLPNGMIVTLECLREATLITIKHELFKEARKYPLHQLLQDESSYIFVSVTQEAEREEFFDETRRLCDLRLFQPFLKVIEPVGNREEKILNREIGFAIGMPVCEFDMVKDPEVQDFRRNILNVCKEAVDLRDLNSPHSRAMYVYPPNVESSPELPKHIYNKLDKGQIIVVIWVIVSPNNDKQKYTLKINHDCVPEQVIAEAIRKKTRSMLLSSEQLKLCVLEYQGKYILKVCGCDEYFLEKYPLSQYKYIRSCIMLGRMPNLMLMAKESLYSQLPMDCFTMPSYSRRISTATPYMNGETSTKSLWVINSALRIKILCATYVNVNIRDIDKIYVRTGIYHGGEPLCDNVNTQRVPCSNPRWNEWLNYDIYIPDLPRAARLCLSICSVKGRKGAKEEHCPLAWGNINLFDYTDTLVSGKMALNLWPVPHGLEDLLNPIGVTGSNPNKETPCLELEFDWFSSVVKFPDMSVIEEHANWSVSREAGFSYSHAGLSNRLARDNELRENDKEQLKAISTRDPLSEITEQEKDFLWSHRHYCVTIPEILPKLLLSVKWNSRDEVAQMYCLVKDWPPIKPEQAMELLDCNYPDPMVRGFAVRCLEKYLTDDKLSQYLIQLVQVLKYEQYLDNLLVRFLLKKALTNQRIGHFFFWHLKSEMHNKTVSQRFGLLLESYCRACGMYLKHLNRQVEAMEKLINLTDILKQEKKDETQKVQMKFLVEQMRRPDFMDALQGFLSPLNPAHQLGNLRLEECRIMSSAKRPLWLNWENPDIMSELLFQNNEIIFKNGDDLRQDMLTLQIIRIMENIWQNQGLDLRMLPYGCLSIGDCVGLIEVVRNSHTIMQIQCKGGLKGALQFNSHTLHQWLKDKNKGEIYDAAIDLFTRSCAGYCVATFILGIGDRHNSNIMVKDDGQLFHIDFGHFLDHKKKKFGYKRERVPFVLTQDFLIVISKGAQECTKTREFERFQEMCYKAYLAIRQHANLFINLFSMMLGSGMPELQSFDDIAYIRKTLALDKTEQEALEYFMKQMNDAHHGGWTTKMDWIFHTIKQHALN
T1 sequence (P27986 whole entry partner): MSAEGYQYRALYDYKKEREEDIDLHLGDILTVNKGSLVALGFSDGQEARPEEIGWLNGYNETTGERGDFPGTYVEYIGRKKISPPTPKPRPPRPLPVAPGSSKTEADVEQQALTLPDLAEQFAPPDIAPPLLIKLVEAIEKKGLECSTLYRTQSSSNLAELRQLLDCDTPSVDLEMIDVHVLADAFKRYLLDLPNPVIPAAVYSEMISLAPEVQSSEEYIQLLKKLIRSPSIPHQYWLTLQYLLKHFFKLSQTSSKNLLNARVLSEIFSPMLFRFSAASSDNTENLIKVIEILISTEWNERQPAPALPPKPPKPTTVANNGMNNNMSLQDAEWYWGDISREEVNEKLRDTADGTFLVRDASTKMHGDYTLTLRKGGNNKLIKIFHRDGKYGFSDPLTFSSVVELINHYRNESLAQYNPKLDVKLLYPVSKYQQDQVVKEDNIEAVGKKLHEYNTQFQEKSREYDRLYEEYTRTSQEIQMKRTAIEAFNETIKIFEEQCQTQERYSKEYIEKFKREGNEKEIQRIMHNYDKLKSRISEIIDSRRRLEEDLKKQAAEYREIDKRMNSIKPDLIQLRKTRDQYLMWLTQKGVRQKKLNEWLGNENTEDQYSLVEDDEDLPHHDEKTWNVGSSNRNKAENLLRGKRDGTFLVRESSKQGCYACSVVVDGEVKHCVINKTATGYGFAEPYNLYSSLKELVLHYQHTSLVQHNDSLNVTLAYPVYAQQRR

Row | IC50 (PI3Kα kinase) [µM] | IC50 (STAT3) [nM] | IC50 (IL-6) [µM] | Structure (SMILES) | IC50 (SKOV3) [nM]
1 | 0.5 to 1 | 100 to 5000 | 0.001 to 5 | CN(N=Cc1cnc2ccc(-c3cccnc3)cn12)S(=O)(=O)c1cccc(F)c1 [Example 5, 3-Fluoro-N-methyl-N′-((6-(pyridine-3-yl)imidazo[1,2-a]pyridine-3-yl)methylene)benzenesulfonohydrazide] | 10 to 5000
2 | 0.01 to 0.5 | 5000 to 10000 | 0.001 to 5 | Cc1ccc(F)cc1S(=O)(=O)N(C)N=Cc1cnc2ccc(-c3cccnc3)cn12 [Example 21, 5-Fluoro-N, 2-dimethyl-N′-((6-(pyridine-3-yl)imidazo[1,2-a]pyridine-3-yl)methylene) benzenesulfonohydrazide] | 10 to 5000

Second part, the molecule before the results:

Row | Structure (SMILES) | IC50 (PI3Kα kinase) [µM] | IC50 (STAT3) [nM] | IC50 (IL-6) [µM] | IC50 (SKOV3) [nM]
3 | Cc1ccc([N+](=O)[O-])cc1S(=O)(=O)N(C)N=Cc1cnc2ccc(-c3cccnc3)cn12 [Example 25] | 0.01 to 0.5 | 100 to 5000 | 0.001 to 5 | 10 to 5000
4 | CN(N=Cc1cnc2ccc(-c3cccnc3)cn12)S(=O)(=O)c1cc(F)cc(F)c1 [Example 16, 3,5-Difluoro-N-methyl-N′-((6-(pyridine-3-yl)imidazo[1,2-a]pyridine-3-yl)methylene) benzenesulfonohydrazide] | 0.5 to 1 | 5000 to 10000 | 0.001 to 5 | 
5 | CN(N=Cc1cnc2ccc(-c3cccnc3)cn12)S(=O)(=O)c1ccc(F)cc1 [Example 6, 4-Fluoro-N-methyl-N′-((6-(pyridine-3-yl)imidazo[1,2-a]pyridine-3-yl)methylene)benzenesulfonohydrazide] | 0.5 to 1 | 5000 to 10000 | 0.001 to 5 | 
